US20060258000A1, “Use of steady-state oxygen gradients to modulate animal cell functions” (priority 2003, published 2006)

Legend:
CYP2B [1] = experiment: CYP2B protein induction in static and perfused co-cultures, Western blot
Description: (§1) Primary rat hepatocytes from 6-well plates or chamber slides were lysed and scraped in SDS buffered (10 mM Tris/HCl (ph 7.4), 0.1% SDS). Samples were added to microcentrifuge tubes with 5 μl of PMSF, homogenized with a pestle, and centrifuged at 16,200 g for 5 minutes. Total protein content in the supernatant was determined using the DC protein assay (Bio-Rad, Hercules, Calif.) and used to normalize sample loading. Samples prepared in sample buffer were loaded (10-20 μg/well) for electrophoresis on a 10% polyacrylamide gel. After overnight transfer on to a PVDF membrane, blots were incubated with a blocking buffered (20 mM Tris-Cl (pH 7.4), 500 mM NaCl, 0.1% Tween 20, and 5% (w/v) milk powder) and washed with buffer without milk powder, incubation for 1 h with primary antibody against rat PEPCK or rat CYP2B (Genset, Woburn, Mass.) was followed by washing and incubation with either anti-sheep (PEPCK) or anti-goat (CYP2B) HRP-conjugated secondary antibody for 45 minutes. After washing, the Pierce SuperSignal chemiluminescence reagent was used for detection. All electrophoresis gels were run with molecular mass markers to verify PEPCK bands (67 kDa) or CYP2B1/2 bands (56 kDa). Optical density measurements were obtained using scanned blot images with 1d gelscan software (Metamorph).

CYP3A = CYP3A protein induction in static and perfused co-cultures, Western blot
CYP2B [2] = experiment: Zonal induction of CYP2B in hepatocyte bioreactor under oxygen gradient, Western blot
Description: Bioreactor cultures were perfused with media and allowed to reach steady state before the addition of inductive agents of glucagon for PEPCK up-regulation or phenobarbitol (PB) and EGF for CYP2B1 induction. […] Media with 0.75 mM PB and 0.16 nM EGF was perfused for 36 h to induced CYB2B expression before cell lysis. Cell lysates were collected at the end of each experiment for electrophoretic analysis.
Primary rat hepatocytes from 6-well plates or chamber slides were lysed and scraped in SDS buffered (10 mM Tris/HCl (ph 7.4), 0.1% SDS). Samples were added to microcentrifuge tubes with 5 μl of PMSF, homogenized with a pestle, and centrifuged at 16,200 g for 5 minutes. Total protein content in the supernatant was determined using the DC protein assay (Bio-Rad, Hercules, Calif.) and used to normalize sample loading. Samples prepared in sample buffer were loaded (10-20 μg/well) for electrophoresis on a 10% polyacrylamide gel.

CYP2B [3] = test system: CYP2B
Description: as §1

PEPCK = experiment: Zonal induction of PEPCK in hepatocyte bioreactor under oxygen gradient, Western blot; type: cell-based, rat
Text: Hepatocyte Isolation And Culture.
Bioreactor And Flow Circuit.

[4] = cultures perfused with 200 μM PB, 36 hours
[5] = static cultures induced with PB

With `CCC1(c2ccccc2)C(=O)NC(=O)NC1=O` [PB, phenobarbital] the “CYP2B expression over controls” value (CYP2B [1]; [4]) was “Dramatic expression of both CYPs over controls”, the “CYP2B spatial distribution along bioreactor” value (CYP2B [1]; [4]) was “levels were highest in the lower-oxygen outlet regions” and the CYP2B expression (CYP2B [1]; [5]) was “moderate CYP2B expression”. For the same compound, the “CYP3A expression over controls” value (CYP3A; [4]) was “Dramatic expression of both CYPs over controls”, the “CYP3A spatial distribution along bioreactor” value (CYP3A; [4]) was “increasing expression from inlet to outlet” and the CYP3A expression (CYP3A; [5]) was “low CYP3A”. The “CYP2B induction along the chamber” value (CYP2B [2]; 0.75 mM PB with 0.16 nM EGF, 36 h, inlet pO2 76 mmHg, 0.5 mL/min (physiologic gradient)) was “increasing CYP2B induction along the length of the chamber” and the “CYP2B levels from inlet to outlet” value (CYP2B [2]; PB with EGF, supraphysiologic oxygen gradient, same flow rate) was “did not result in significant differences in CYP2B levels from inlet to outlet”.

For `C[C@@H]1C[C@H]2[C@@H]3CCC4=CC(=O)C=C[C@]4(C)[C@@]3(F)[C@@H](O)C[C@]2(C)[C@@]1(O)C(=O)CO` [DEX, dexamethasone], the “CYP2B induction and localization” value (CYP2B [3]) was “high levels which were localized to inlet regions”.

glucagon was tested, and the “PEPCK protein levels in 4 bioreactor regions” value (PEPCK; 10 nM glucagon 8 h, inlet pO2 76 mmHg, 0.5 mL/min (physiologic gradient)) was “maximal PEPCK protein levels at the inlet decreasing to half maximal at the outlet” and the PEPCK induction distribution (PEPCK; 10 nM glucagon, inlet pO2 158 mmHg, 0.5 ml/min (supraphysiologic gradient)) was “heterogenous induction of PEPCK was abrogated”.
